In patent US5569599A, “Kerainase from fervidobacterium pennavorans DSM 7003” (Degussa Aktiengesellschaft, priority 1992, dated 1996):
Where a name gives a salt, the structure may show the parent alone. Numbered stars: 1 amine (or outer) side, 2 acyl side, 3 side chain; on linkers, the order of the positions; unused ones are H or OH. Peptide text beside a SMILES is read from it. * marks the point of attachment. pNA = O=[N+]([O-])c1ccc(N*)cc1; Suc = O=C(CCC(=O)[*:2])[*:1]; Cbz = O=C(OCc1ccccc1)*

What was measured:
Format in all cases: biochemical, Fervidobacterium pennavorans
[1] = tested on: proteases of cell-free raw extract of strain W; assay: Hydrolysis of chromogenic peptide substrates by the proteases (E405 value); details: 17 hours at 60° C., 0.2 mM substrate in phosphate buffer pH 7, 0.3 mg/ml raw enzyme extract, measuring stretch 1 cm
Procedure: The hydrolysis of chromogenic peptide substrates by proteases of the […] (E405 value)
In order to determine the substrate specificity of the proteases the cited chromogenic peptide substrates are incubated in a final concentration of 0.2 mM together with cell-free raw extract.
The incubation takes place below the temperature optimum and pH optimum of the proteases in order to avoid a thermal and pH-dependent, non-enzymatic hydrolysis of the peptide substrates.
900 μl 0.2 mM (w/v) substrate solution in 50 mM Na-P-buffer, pH 7.0
100 μl enzyme specimen incubation for 17 h at 60° C.
The released p-nitroaniline is subsequently measured immediately against a non-incubated blank reading at an extinction of 405 nm.

[2] = tested on: proteolytic activity of raw extract of strain W; assay: Influence of metal ions on the proteolytic activity of the raw extract; details: 1 h room temperature with raw extract, then 1 h at 80° C. with 0.25 % substrate pH 10; for ca. % activity 1 mM: metal ion 1 mM; for ca. % activity 5 mM: metal ion 5 mM
Procedure: Cells of a fermenter culture are macerated (approximately 1 g/20 ml Na-phosphate 50 mM pH 6.8 buffer) by ultrasound. (15 min, 50 %, stage (setting) 6-7, average sonication peak, Branson Sonifier). After microscopic control of successful maceration the raw extract is centrifuged for 20 min, 4° C., 35,000 xg. The supernatant obtained in this manner is used for the enzyme tests.
(§1) 0.45 ml 0.25 % (w/v) casein solution (Hammersten Quality) in an appropriate B & R buffer (Britton & Robinson, J. Chem. Soc. (1931), p. 1456. A solution containing 0.4 M H3 PO4, 0.4M CH3 COOH and 0.4M H3 BO3 in water is adjusted to the desired pH with 0.2 N NaOH) is pipetted on ice with 0.05 ml enzyme-containing specimen into E-Cups and incubated, depending on the activity, up to 60 min at the optimal temperature for the enzyme (80° C.) and the optimal pH (10). The batch is then compounded for stopping off and precipitating the proteins with 0.5 ml 10 % (w/v) trichloroacetic acid (TCA), incubated for 15-30 min at room temperature and then centrifuged for 10 min at 13000 rpms in an Eppendorf centrifuge (Heraeus Sepatech, Osterode). The extinction of the clear supernatant is measured at 280 nm in a quartz cuvette against a non-incubated blank reading.
(§2) In order to determine the enzyme activity, a tyrosine calibration curve is recorded in the range of 0-1 μM/batch. An enzyme activity (1 unit) is defined as that amount which released 1 μmole aromatic amino acids/min. The following computation results from the rise of the calibration curve: [formula] Production of the enzyme composition
The metal ions are dissolved in a buffer, 50 mM Na--P; pH 6.8. 50 μl of this solution are incubated with 50 μl raw extract for 1 h at room temperature, then 400 μl substrate (0.25 %, pH 10) are added and incubated for 1 h at 80° C. TCA precipitation and determination of activity are carried out as described above.

[3] = biological target: T1, proteases of the enzyme composition from microorganism strain W (Fervidobacterium pennivorans, UniProt Q93LQ6); assay: biochemical; details: for remaining activity at 1000 µM / remaining activity at 5000 µM: 1 h; for remaining activity at 1000 µM: pH 10, read-out: Residual act. (1 mM); for remaining activity at 5000 µM: pH 10, read-out: Residual act. (5 mM); for Residual act. (1 mM): inhibitor 1 mM
T1 construct: casein substrate, pH 10, 80 C
T1 sequence (Q93LQ6 150-699): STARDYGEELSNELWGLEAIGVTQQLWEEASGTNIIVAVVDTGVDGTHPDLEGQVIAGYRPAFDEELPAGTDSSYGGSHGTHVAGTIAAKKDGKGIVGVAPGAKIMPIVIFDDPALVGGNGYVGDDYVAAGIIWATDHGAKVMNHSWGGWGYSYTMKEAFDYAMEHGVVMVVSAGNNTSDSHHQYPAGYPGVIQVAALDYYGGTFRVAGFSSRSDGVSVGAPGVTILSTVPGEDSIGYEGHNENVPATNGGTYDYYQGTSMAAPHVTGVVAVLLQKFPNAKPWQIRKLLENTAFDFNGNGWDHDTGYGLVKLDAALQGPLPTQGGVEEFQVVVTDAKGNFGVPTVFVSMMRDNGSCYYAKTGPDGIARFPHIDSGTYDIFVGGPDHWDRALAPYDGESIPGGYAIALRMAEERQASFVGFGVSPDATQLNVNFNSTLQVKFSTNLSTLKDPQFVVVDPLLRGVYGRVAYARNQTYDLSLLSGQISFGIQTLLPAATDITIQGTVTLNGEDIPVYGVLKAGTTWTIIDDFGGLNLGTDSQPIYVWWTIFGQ
Procedure: as §1, §2
Phenylmethylsulfonyl fluoride (PMSF) and diisopropylfluorophosphate (DFP) bond to the OH group of the serine in the active center of serine proteases and inhibit the latter irreversibly. Ethylene diamine tetraacetate Na2 salt (EDTA) is a metal chelating agent and inhibits metalloproteases.
470 μl 0.25 % (w/v) casein in […], pH 10--buffer (B & R)
5 μl inhibitor stock [strain]solution (see below)
When using 5 μl inhibitor stock solution the final concentration corresponds to 1 mM. When using 25 μl inhibitor solution (final concentration 5 mM), only 450 μl substrate solution are accordingly used. The batches are at first incubated without substrate at room temperature (1 h) and then with substrate for 1 h at the temperature which is optimum for the enzyme.
After the incubation the reaction is stopped with 500 μl of a 10 % (w/v) solution of trichloroacetic acid and the remaining activity determined as described above. The following inhibitor solutions are used:
PMSF 17.3 % (w/v) in ethanol
EDTA 3.56 % (w/v) in H2 O bidistillate
Iodoacetate 14.4 % (w.v) in H2 O bidistillate

[4] = 1 h preincubation at room temperature, then 1 h with casein, pH 10, optimum temperature, without inhibitor = 100%, approximate values

## N=C(N)NCCCC(NC(=O)c1ccccc1)C(=O)Nc1ccc([N+](=O)[O-])cc1 (racemic) [benzoyl-DL-Arg-pNA]
[1]
  E405 value (in comparison to blank value): below 0.1

## [Ca+2].[Cl-].[Cl-] [CaCl2]
[2]
  ca. % activity 1 mM: 85%
  ca. % activity 5 mM: 117%

## [Cl-].[Cl-].[Co+2] [CoCl2]
[2]
  ca. % activity 1 mM: 143%
  ca. % activity 5 mM: 187%

## [Cl][Cu][Cl] [CuCl2]
[2]
  ca. % activity 1 mM: 17%
  ca. % activity 5 mM: 0%

## O=C(O)CN(CCN(CC(=O)O)CC(=O)O)CC(=O)O [EDTA, Ethylene diamine tetraacetate Na2 salt]
[3]
  remaining activity at 1000 µM: 93%
  remaining activity at 5000 µM: 85%

## [Cl][Fe][Cl] [FeCl2]
[2]
  ca. % activity 1 mM: 127%
  ca. % activity 5 mM: 0%

## [Cl][Fe]([Cl])[Cl] [FeCl3]
[2]
  ca. % activity 1 mM: 93%
  ca. % activity 5 mM: 0%

## O=C(O)CI [Iodoacetate]
[3]
  remaining activity at 1000 µM: 83%
  remaining activity at 5000 µM: 76%

## [Cl-].[Cl-].[Mg+2] [MgCl2]
[2]
  ca. % activity 1 mM: 171%
  ca. % activity 5 mM: 125%

## [Cl][Mn][Cl] [MnCl2]
[2]
  ca. % activity 1 mM: 110%
  ca. % activity 5 mM: 120%

## C[C@H](NC(=O)CCC(=O)O)C(=O)N[C@@H](C)C(=O)N1CCC[C@H]1C(=O)N[C@@H](Cc1ccccc1)C(=O)Nc1ccc([N+](=O)[O-])cc1 [N-succinyl-Ala-Ala-Pro-Phe-pNA] (Suc-AAPF-pNA)
[1]
  E405 value (in comparison to blank value): > 0.5

## O=C(O)CCC(=O)N[C@@H](Cc1ccccc1)C(=O)Nc1ccc([N+](=O)[O-])cc1 [N-succinyl-Phe-pNA]
[1]
  E405 value (in comparison to blank value): > 0.5

## [Cl-].[Na+] [NaCl]
[2]
  ca. % activity 1 mM: 86%
  ca. % activity 5 mM: 116%

## O=[Se]([O-])[O-].[Na+].[Na+] [NaSe2 O3]
[2]
  ca. % activity 1 mM: 96%
  ca. % activity 5 mM: 136%

## [Na+].[Na+].[O]=[W](=[O])([O-])[O-] [NaWO4]
[2]
  ca. % activity 1 mM: 75%
  ca. % activity 5 mM: 134%

## [Na+].[Na+].[O]=[Mo](=[O])([O-])[O-] [NcMoO4]
[2]
  ca. % activity 1 mM: 91%
  ca. % activity 5 mM: 95%

## [Cl][Ni][Cl] [NiCl2]
[2]
  ca. % activity 1 mM: 72%
  ca. % activity 5 mM: 44%

## O=S(=O)(F)Cc1ccccc1 [PMSF, Phenylmethylsulfonyl fluoride]
[3]; [4]
  Residual act. (1 mM): 14%
[3]; inhibitor 5 mM, 1 h preincubation at room temperature, then 1 h with casein, pH 10, optimum temperature, without inhibitor = 100%, approximate values
  Residual act. (5 mM): 10%

## NCCc1ccc(S(=O)(=O)F)cc1 [Pefabloc SC]
[3]; [4]
  Residual act. (1 mM): 83%

## O=S(=O)([O-])[O-].[O]=[V+2] [VOSO4]
[2]
  ca. % activity 1 mM: 87%
  ca. % activity 5 mM: 44%

## O=C(NCC(=O)N1CCC[C@H]1C(=O)Nc1ccc([N+](=O)[O-])cc1)OCc1ccccc1 [Z-Gly-Pro-pNA] (Cbz-Gly-Pro-pNA)
[1]
  E405 value (in comparison to blank value): below 0.1

## [Cl-].[Cl-].[Zn+2] [ZnCl2]
[2]
  ca. % activity 1 mM: 57%
  ca. % activity 5 mM: 37%

## CC(=O)N[C@@H](Cc1ccc(O)cc1)C(=O)Nc1ccc([N+](=O)[O-])cc1 [acetyl-Tyr-pNA]
[1]
  E405 value (in comparison to blank value): below 0.1

## NCCCC[C@H](NC(=O)c1ccccc1)C(=O)Nc1ccc([N+](=O)[O-])cc1 [benzoyl-Lys-pNA]
[1]
  E405 value (in comparison to blank value): below 0.1

## AgCl2
[2]
  ca. % activity 1 mM: 0%
  ca. % activity 5 mM: 0%
